Legend:
[1] = system: duodenal ulcer; settings: administered to treat heart failure; Gidaiatov et al. (2000); cited from earlier work
[2] = system: gastric mucosal erosions, dyspeptic symptoms; settings: cited from earlier work
[3] = system: gastric PGE2 synthesis; assay: Acute indomethacin-induced gastric toxicity in rats: gastric PGE2 synthesis; assay type: in vivo, rat; settings: indomethacin 20 mg/kg p.o.
Experimental: A study was conducted to determine whether GL1001 would inhibit acute NSAID (indomethacin)-induced gastric toxicity in a rat model (Wallace et al. (1998) Gastroenterol. 115:101-109). Several modes of treatment with GL1001 or vehicle were employed, which included administration via drinking water, oral administration and subcutaneous administration as shown in Table 4. Irrespective of the route of drug or vehicle administration, male Wistar rats were deprived of food for 16 h prior to oral administration of 20 mg/kg indomethacin (Sigma) or vehicle (5% w/v sodium bicarbonate; 1 ml/kg). Three hours later the rats were sacrificed and the severity of gastric damage was blindly scored. This involved measurement of the lengths (in mm) of all hemorrhagic erosions and summing these to give a “gastric damage score” for each stomach. Samples of the stomach were taken for measurement of prostaglandin E2 (PGE2) synthesis as described by Wallace et al. (1998), supra, and myeloperoxidase activity as described by Souza et al. (2003) Am. J. Physiol. 285:[…]-61. Myeloperoxidase is an enzyme found in all cells of mycloid origin, but particularly enriched within neutrophils. It is therefore used as a biochemical marker of granulocyte infiltration into tissue. Each group consisted of 6 rats. As a negative control, one group received vehicle pretreatments (in the drinking water and by oral gavage) and then received vehicle instead of indomethacin. […] [table] In the experiments where GL1001 (or vehicle) was added to drinking water, the rats were provided with the modified drinking water for 2 days prior to administration of indomethacin (or vehicle). This included the period when the rats were deprived of food. GL1001 was prepared in 0.1M citrate buffer before being added to the drinking water. Based on average water consumption by rats, this was aimed at providing a daily dose of GL1100 of 1200 mg/kg (water consumption was monitored for several days prior to initiation of the study). Oral or subcutaneous administration of GL1001 (or vehicle) was performed 30 minutes prior to administration of indomethacin. Data are expressed as mean±SEM. When two groups of data were compared, a Student's t-test was used. When more than two groups of data were compared, a one-way analysis of variance followed by the Newman-Keuls test was used. An associated probability of less than 5% was considered statistically significant.

[4] = system: diclofenac-induced gastric damage; assay: Acute diclofenac-induced gastric toxicity in rats: gastric damage score; assay type: in vivo, rat; settings: for Gastric damage score: Group D: PGE2 100 μg/kg oral 30 min before diclofenac 50 mg/kg oral, 3 h, Group B 17.80 ± 5.08
Experimental: (§1) Male Wistar rats were deprived of food but not water for 16 hours prior to oral administration of GL1001 90 mg/kg, incubated for 30 minutes and then given oral diclofenac 50 mg/kg. Each group consisted of 6 rats. As a negative control, one group received vehicle pretreatment, and then received vehicle instead of diclofenac. A positive control group received PGE2 100 μg/kg orally, 30 minutes prior to administration of diclofenac. All treatments were administered by oral gavage.
(§2) Three hours after diclofenac treatment, all animals were sacrificed and stomachs were removed and imaged to determine the severity of gastric damage. Additionally, stomach tissue samples were taken to assess disease activity and pharmacodynamic effects. Gastric damage scores were determined from photographic images (Ma & Wallace (2003) Am. J. Physiol. Gastrointest. Liver Physiol. 279; 341-346). Removed stomachs were opened along the greater curvature, pinned out on a wax block, and photographed along a 25 mm ruler reference with a digital 35 mm camera. The lesion area was then determined using enlarged images and computer software (www.scioncorp.co/pages/scion_image_windows.htm) that allows superimposed drawing of the perimeter of a wound and calculation of the area based on the ruler reference. Stomach samples (excluding forestomach) were used for measurements of PGE2 concentration, MPO activity and ACE2 activity. PRE2 determinations are used in this study as a hiomarker of diclofenac effect since its mechanism of action involves inhibition of cyclooxygenase (COX-2 and COX-1) enzymes which in turn results in inhibition of PGE2 synthesis. Concentration of PGE2 from stomach tissue samples was performed as described by Souza et al. (2003), supra, and quantification was obtained by LC-MS. MTO, an enzyme found in abundance in granulocytes, is used as a biochemical marker of tissue inflammation. When tissues undergo inflammatory processes, granulocytes are recruited to the site of inflammation and infiltrate the affected tissue giving rise to increase MPO activity (Souza et al. (2003), supra). Last, the extent of inhibition of ACE2 activity was determined to establish whether GL1001 was effective in inhibiting its ACE2 target in stomach tissues. The ACE2 activity assay is similar to the method of Vickers et al. (2002) J. Biol. Chem. 277:14838-14843, wherein purified recombinant ACE2 (100 pM) and a quenched fluorescent substrate (100-150 μM APK (7-methoxycoumarin-4-yl)acetyl-Ala-Pro-Lys (2,4-dinitrophenyl)) are used in end-point fluorescence reactions (excitation 320 nm, emission 405 nm). For stomach ACE2 measurements, tissues were homogenized in the presence of a general protease inhibitor (PMSF) and specific ACE inhibitors. […]
(§3) Data are expressed as means with standard errors. […]

[5] = system: gastric PGE2; assay: Acute diclofenac-induced gastric toxicity in rats: gastric PGE2 concentration; assay type: in vivo, rat
Experimental: as §1
as §2, with “PRE2 determinations are used in this study as a hiomarker of diclofenac effect since its mechanism of action involves inhibition of cyclooxygenase (COX-2 and COX-1) enzymes which in turn results in inhibition of PGE2 synthesis.” left out, “MTO, an enzyme found in abundance in granulocytes, is used as a biochemical marker of tissue inflammation. When tissues undergo inflammatory processes, granulocytes are recruited to the site of inflammation and infiltrate the affected tissue giving rise to increase MPO activity (Souza et al. (2003), supra).” left out, “nm).” for “nm). For stomach ACE2 measurements, tissues were homogenized in the presence of a general protease inhibitor (PMSF) and specific ACE inhibitors.”
as §3

[6] = molecular target: T1, ACE2 (Rattus norvegicus, UniProt Q5EGZ1); assay: Acute diclofenac-induced gastric toxicity in rats: ACE2 activity in stomach tissue; assay type: in vivo
T1 construct: from tissue; host or cells: rat stomach (excluding forestomach) homogenate
T1 sequence (Q5EGZ1 18-805): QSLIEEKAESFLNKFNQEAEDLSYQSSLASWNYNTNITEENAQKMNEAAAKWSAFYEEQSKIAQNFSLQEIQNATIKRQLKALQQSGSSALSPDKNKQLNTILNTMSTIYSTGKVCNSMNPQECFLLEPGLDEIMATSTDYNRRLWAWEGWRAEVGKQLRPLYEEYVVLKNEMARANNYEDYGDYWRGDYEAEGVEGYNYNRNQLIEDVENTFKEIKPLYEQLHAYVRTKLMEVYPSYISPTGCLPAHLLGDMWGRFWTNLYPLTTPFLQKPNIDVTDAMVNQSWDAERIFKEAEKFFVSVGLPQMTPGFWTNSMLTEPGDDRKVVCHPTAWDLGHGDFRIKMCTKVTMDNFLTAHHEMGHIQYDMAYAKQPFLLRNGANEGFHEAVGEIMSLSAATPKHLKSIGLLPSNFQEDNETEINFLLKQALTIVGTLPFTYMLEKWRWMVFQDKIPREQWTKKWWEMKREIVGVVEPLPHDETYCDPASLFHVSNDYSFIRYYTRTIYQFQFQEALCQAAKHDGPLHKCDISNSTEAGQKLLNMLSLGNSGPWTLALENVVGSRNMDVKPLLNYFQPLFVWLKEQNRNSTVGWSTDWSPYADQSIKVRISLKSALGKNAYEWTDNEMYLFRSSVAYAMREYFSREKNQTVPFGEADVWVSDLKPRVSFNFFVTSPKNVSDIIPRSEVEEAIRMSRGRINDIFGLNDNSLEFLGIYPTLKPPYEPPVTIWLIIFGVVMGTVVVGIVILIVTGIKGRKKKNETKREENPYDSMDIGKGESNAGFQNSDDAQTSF
Experimental: as §1
as §2, with “PRE2 determinations are used in this study as a hiomarker of diclofenac effect since its mechanism of action involves inhibition of cyclooxygenase (COX-2 and COX-1) enzymes which in turn results in inhibition of PGE2 synthesis.” left out, “MTO, an enzyme found in abundance in granulocytes, is used as a biochemical marker of tissue inflammation. When tissues undergo inflammatory processes, granulocytes are recruited to the site of inflammation and infiltrate the affected tissue giving rise to increase MPO activity (Souza et al. (2003), supra).” left out, “nm).” for “nm). For stomach ACE2 measurements, tissues were homogenized in the presence of a general protease inhibitor (PMSF) and specific ACE inhibitors.”
as §3

[7] = system: myeloperoxidase; assay: Acute indomethacin-induced gastric toxicity in rats: gastric myeloperoxidase activity; assay type: in vivo, rat; settings: Group J: PGE2 100 μg/kg p.o., indomethacin 20 mg/kg p.o.; vehicle Group I 29.5 ± 2.8
Experimental: A study was conducted to determine whether GL1001 would inhibit acute NSAID (indomethacin)-induced gastric toxicity in a rat model (Wallace et al. (1998) Gastroenterol. 115:101-109). Several modes of treatment with GL1001 or vehicle were employed, which included administration via drinking water, oral administration and subcutaneous administration as shown in Table 4. Irrespective of the route of drug or vehicle administration, male Wistar rats were deprived of food for 16 h prior to oral administration of 20 mg/kg indomethacin (Sigma) or vehicle (5% w/v sodium bicarbonate; 1 ml/kg). Three hours later the rats were sacrificed and the severity of gastric damage was blindly scored. This involved measurement of the lengths (in mm) of all hemorrhagic erosions and summing these to give a “gastric damage score” for each stomach. Samples of the stomach were taken for measurement of prostaglandin E2 (PGE2) synthesis as described by Wallace et al. (1998), supra, and myeloperoxidase activity as described by Souza et al. (2003) Am. J. Physiol. 285:[…]-61. Myeloperoxidase is an enzyme found in all cells of mycloid origin, but particularly enriched within neutrophils. […] Based on average water consumption by rats, this was aimed at providing a daily dose of GL1100 of 1200 mg/kg (water consumption was monitored for several days prior to initiation of the study). […] Data are expressed as mean±SEM. […]

Question: Which results are given for `CCOC(=O)[C@H](CCc1ccccc1)N[C@@H](C)C(=O)N1CCC[C@H]1C(=O)O` [enalapril]?
Answer: healing of duodenal ulcer, patients treated [1]: 87%; percentage of patients with dyspeptic symptoms ([2]; hypertensive patients, decreased from 78% upon treatment): 40%; number of patients having gastric mucosal erosions ([2]; of 30 hypertensive patients, decreased from 11 upon treatment): 4

Question: Which “reduction of gastric PGE2 synthesis” value ([3]; irrespective of pretreatment, vehicle only Group E 82 ng/mg) does the source give for `COc1ccc2c(c1)c(CC(=O)O)c(C)n2C(=O)c1ccc(Cl)cc1` [indomethacin, reference compound] here?
Answer: The value was greater than 92%.

Question: What does the source list for `O=C(O)Cc1ccccc1Nc1c(Cl)cccc1Cl` [diclofenac]?
Answer: mean gastric damage score ([4]; diclofenac 50 mg/kg oral after vehicle pretreatment, 3 h (Group B)): 17.8; PGE2 levels in stomach tissue ([5]; all treatment groups that received diclofenac 50 mg/kg oral, vehicle Group A 43.22 pg/mg): no detectable; Activity of ACE2 in stomach tissue ([6]; diclofenac-treated Group B vs Group A, p=0.052): trend towards up-regulation

Question: For `CCCCC[C@H](O)/C=C/[C@H]1[C@H](O)CC(=O)[C@@H]1C/C=C\CCCC(=O)O` [PGE2, prostaglandin E2], which “Gastric PGE2 synthesis” value ([3]; Group J: PGE2 100 μg/kg p.o., vehicle Group I 6.08 ± 1.00) is on record?
Answer: Its value is 6.10 ± 1.00 ng/mg.

Question: What about the “Gastric MPO activity” value [7] of the same molecule?
Answer: The value was 22.8 ± 2.2 U/mg.

Question: What about the Gastric damage score [4] of the same molecule?
Answer: The Gastric damage score was 0.

Question: What about the Gastric damage score ([4]; listed as PCGE2) of the same molecule?
Answer: The Gastric damage score was “total absence of gastric lesions”.

Question: And the “Gastric PGE2 concentration” value ([5]; Group D: PGE2 100 μg/kg oral before diclofenac 50 mg/kg)?
Answer: The value was 0 pg/mg.

Question: What about the “Gastric ACE2 activity” value ([6]; Group D: PGE2 100 μg/kg oral before diclofenac 50 mg/kg, Group B 880 ± 39) of the same molecule?
Answer: Its value is 688 ± 30 pmol/mg.

From patent US20100035848A1, “THERAPY FOR DISORDERS OF THE PROXIMAL DIGESTIVE TRACT” (priority 2008, published 2010)
